Data reported in patent US9943398B2, “Increasing survival of free tissue grafts and flaps using phosphodiesterase type 5 (PDE5) inhibitors” (New York University, priority 2012, dated 2018).

Experiments:
Format in all cases: in vivo, mice
[1] = tested on: explanted fat grafts (Tie2/LacZ donor, wild type FVB recipient); test: Quantitative PCR of 2-day old explanted fat grafts after sildenafil pretreatment of donor tissue; conditions: qPCR
Description: (§1) To examine the effect of PDE5 inhibitor pretreatment of donor graft tissue on graft take and survival, transfer of syngeneic fat between Tie2/LacZ mice (donor) and wild type FVB mice (recipient) was performed. A schematic representation of the protocol is depicted in FIG. 1A. Since the transgenic mice express the lacZ gene in their blood vessels, donor and recipient vasculature can be independently visualized and assessed based on the presence or absence of lacZ gene expression.
Prior to harvesting the inguinal fat pads from 6-12 week old transgenic FVB Tie2/LacZ mice, the pads were infiltrated with small volumes of PBS (control) and 35 nM sildenafil citrate in PBS and allowed to dwell for 15-20 minutes. The pads were harvested, washed in PBS, and finely minced to simulate conditions of human harvest. The minced fat was centrifuged at 3000 rpm for 3 minutes and the aqueous and oil layers removed leaving the adipose layer for injection. The dorsum of syngeneic wildtype FVB mice was used as the recipient bed for the processed lipoaspirate, as previously described (Sultan et al., “Human Fat Grafting Alleviates Radiation Skin Damage in a Murine Model,” Plast Reconstr Surg 128:363-72 (2011) and Thanik et al., “A Murine Model for Studying Diffusely Injected Human Fat,” Plast Reconstr Surg 124:74-81 (2009), which are hereby incorporated by reference in their entirety). Autologous fat was infiltrated using a blunt tip cannula through a 2-mm caudal midline incision. The infiltration cannula was advanced and withdrawn in a fan like pattern in the dorsal subdermal plane of the mouse, to maintain an even layer over the entire dorsal surface.

[2] = tested on: fat grafts; test: Graft weight retention of explanted fat grafts; conditions: 8 weeks post transplant
Description: as §1
(§2) Prior to harvesting the inguinal fat pads from 6-12 week old transgenic FVB Tie2/LacZ mice, the pads were infiltrated with small volumes of PBS (control) and 35 nM sildenafil citrate in PBS and allowed to dwell for 15-20 minutes. The pads were harvested, washed in PBS, and finely minced to simulate conditions of human harvest. The minced fat was centrifuged at 3000 rpm for 3 minutes and the aqueous and oil layers removed leaving the adipose layer for injection. The dorsum of syngeneic wildtype FVB mice was used as the recipient bed for the processed lipoaspirate, as previously described (Sultan et al., “Human Fat Grafting Alleviates Radiation Skin Damage in a Murine Model,” Plast Reconstr Surg 128:363-72 (2011) and Thanik et al., “A Murine Model for Studying Diffusely Injected Human Fat,” Plast Reconstr Surg 124:74-81 (2009), which are hereby incorporated by reference in their entirety). […]

[3] = tested on: fat grafts; test: Graft volume maintenance and graft survival analysis after fat transfer
Description: as §1, §2

[4] = tested on: fat grafts; test: Vascular flux (Doppler) in grafted fat tissue after transplantation
Description: as §1, §2

[5] = 2-day old explanted grafts, 35 nM sildenafil citrate pretreatment vs PBS/saline control
[6] = explanted tissue, sildenafil pretreatment vs saline control

CCCc1nn(C)c2c(=O)nc(-c3cc(S(=O)(=O)N4CCN(C)CC4)ccc3OCC)[nH]c12 [sildenafil, 5-{2-Ethoxy-5-[(4-methyl-1-piperazinyl)sulfonyl]phenyl}-1-methyl-3-propyl-1,4-dihydro-7H-pyrazolo[4,3-d]pyrimidin-7-one 2-hydroxy-1,2,3-propanetricarboxylate (1:1)]
LacZ expression (donor-derived endothelial cell function/viability) [1, 5]: increased | PECAM-1 expression (donor-derived endothelial cell function/viability) [1, 5]: increased | expression of the inflammatory gene SDF-1α [1, 6]: decreased | expression of the inflammatory gene VCAM [1, 6]: decreased | enhanced graft retention (percent graft weight retention) compared to saline treated grafts [2]: > 2 fold | graft tissue volume after transfer ([3]; over 12 weeks after transfer, vs saline treated grafts, which are resorbed quickly): maintained virtually all of its volume over time | graft survival ([3]; survival analysis vs saline-treated control grafts and devascularized (trypsin-inactivated) grafts): survive significantly longer | revascularization within the core of the graft ([4]; 1 and 2 weeks post grafting, vs control): significant improvement in revascularization | restoration of blood flow within the grafted tissues (vascular flux) ([4]; first two weeks following transplantation, vs saline control): faster restoration of blood flow
